{"source": "patent US9580398B2", "about": "“Compounds, compositions, and methods for modulating ferroptosis and treating excitotoxic disorders” (The Trustees of Columbia University in the City of New York, priority 2012, dated 2017)", "key": {"[1]": {"test_system": "rat organotypic hippocampal slice culture (OHSC)", "assay": "Glutamate-induced excitotoxic cell death in organotypic hippocampal slice cultures (PI uptake)", "type": "cell-based", "settings": "5 mM L-glutamate 3 hours; 24 hours after; DG, CA1, CA3; Fer-1 2 μM, CPX 5 μM, MK-801 10 μM", "experimental": "OHSCs were cultured as previously described (Morrison et al., 2002) with approval from Columbia University's Institutional Animal Care and Use Committee (IACUC). Briefly, Sprague Dawley rat pups (P8-P10) were rapidly decapitated, and the hippocampus placed in ice-cold Gey's balanced salt solution (Sigma). 400 μm thick sections were cut using a Mcllwain tissue chopper and immediately plated on Millicell cell culture inserts (Millipore, Billerica, Mass.) in Neurobasal (Invitrogen) media supplemented with B27 (1×, Invitrogen), GlutaMAX (1 mM, Invitrogen), and D-glucose (4.5 mg/mL, Sigma) at 37° C. and 5% CO2. After 2 days in vitro (DIV), the media was changed to medium containing serum comprised of 50% DMEM (Sigma), 25% heat-inactivated horse serum (Sigma), 25% Hank's balanced salt solution (Sigma), GlutaMAX (1 mM, Invitrogen), and D-glucose (4.5 mg/mL, Sigma). Medium was changed every 2-3 days.\nAfter 10-14 DIV, OBSCs were exposed to an excitotoxic injury consisting of a 3 hour exposure to 5 mM L-glutamate in SFM (Morrison et al., 2002). Only healthy OHSCs defined as those with less than 5% cell death in all regions of the hippocampus (DG, CA3, CA1) pre-injury were used for experiments. After the 3 hour exposure, the cultures were placed in fresh serum free media (SFM) containing 75% DMEM, 25% Hank's balanced salt solution, GlutaMAX (1 mM), D-glucose (4.5 mg/mL) until cell death was quantified at 24 hours. If drugs were added, they were added at the same time as glutamate.\nQuantification of cell death has been described previously (Cater et al., 2007; Morrison et al., 2002). Brightfield images of the hippocampal cultures were taken before injury for identification of regions of interest (ROI) including the dentate gyrus (DG), CA3 and CA1. Propidium iodide (PI, Invitrogen) was used as a fluorescent signal for cell death, and images were taken before the induction of injury and 24 hours following injury. […] Percentage cell death was expressed as the number of pixels in the ROI above a threshold in the PI fluorescent image divided by the total number of pixels in the ROI."}, "[2]": {"test_system": "HT-1080 cells", "assay": "HT-1080 cell proliferation (Vi-Cell)", "type": "cell-based, human", "settings": "over 48 hours", "experimental": "Cell viability was typically assessed in 384-well format by Alamar Blue (Invitrogen) fluorescence (ex/em 530/590) measured on a Victor3 platereader (Perkin Elmer, Waltham, Mass.). In some experiments, Trypan Blue dye exclusion counting was performed using an automated cell counter (ViCell, Beckman-Coulter Inc., Brea, Calif.). Cell viability in test conditions is reported as a percentage relative to the negative control treatment."}, "[3]": {"test_system": "HT-1080 cells", "assay": "LOC library screening and confirmation: inhibition of erastin-induced ferroptosis", "type": "cell-based, human", "settings": "LOC library screening and confirmation studies, read-out: EC50, inhibitor of erastin-induced ferroptosis", "experimental": "The LOC library was screened over the course of several days. 384-well glass bottom assay plates (Corning) were seeded with 1,000 HT-1080 cells/well the day before the experiment. The day of the experiment, LOC mother plates were thawed at room temperature for 1 hour and spun at 1000 rpm for 1 minute prior to use. Using a BioMek liquid handing robot, 2 μL of compound solution from each LOC library mother plate was transferred to a 384 deep well “daughter” plate (Grenier) containing 148 μL of cell culture media. The cell culture media in each assay plate was then removed by flicking and, using a BioMek FX, replaced with 36 μL of growth media containing erastin (5 μM final). To this was added 4 μL of the drug solution from the daughter plate, for a final screening concentration of 5.3 μg/mL for each LOC library compound. 4 wells containing DMSO alone (no erastin), 4 wells containing 100 μM DFO alone (no erastin), 4 wells containing erastin plus DMSO, and 4 wells containing erastin plus 100 μM DFO (positive control) were included as controls on each plate. Each drug daughter plate was aliquoted separately to duplicate assay plates. Plates were then spun briefly (1000 rpm, 5 seconds) and returned to the 37° C. tissue culture incubator. 24 hours later, cell viability was assessed by Alamar Blue as described above.\nCandidate hits from the LOC library screen were identified. […]"}, "[4]": {"test_system": "ROS production in HT-1080 cells", "assay": "Analysis of reactive oxygen species production by flow cytometry (H2DCFDA, C11-BODIPY, MitoSOX)", "type": "cell-based, human", "settings": "erastin 10 μM; HT-1080 cells; H2DCFDA, C11-BODIPY", "method": "The day before the experiment, 200,000 cells/well were seeded in 6-well dishes (Corning Inc., Corning, N.Y.). […] Data was collected from the FL1 (H2DCFDA, C11-BODIPY) or FL2 channel (MitoSOX). A minimum of 10,000 cells were analyzed per condition."}}}
{"compound": "CCOC(=O)c1ccc(NC2CCCCC2)c(N)c1", "note": "[Fer-1, ferrostatin-1]", "values": [{"measurement": "glutamate-induced cell death (PI uptake)", "setting": "[1]", "value": "attenuated significantly and to an almost identical extent"}, {"measurement": "HT-1080 cell proliferation", "setting": "[2]", "value": "did not inhibit ERK phosphorylation or arrest the proliferation of HT-1080 cells"}, {"measurement": "EC50", "setting": "[3]", "value": 60, "unit": "nM"}, {"measurement": "effect on erastin-induced ROS accumulation", "setting": "[4]", "value": "prevent erastin-induced accumulation of cytosolic and lipid ROS"}]}
